Earlier results on one compound are cited in paper PMC5532403, “Potential for a novel manganese porphyrin compound as adjuvant canine lymphoma therapy” (Cancer Chemotherapy and Pharmacology, 2017).

The subject of series [1] is murine lymphoma cell lines. The arrangement: method as in PMID 19549914, PMID 25725417. Particulars: in vitro; cited from earlier work.
For series [2], the system named is primary human lymphoma samples. The arrangement: method as in PMID 19549914, PMID 25725417. To be noted: ex vivo; cited from earlier work.
Details of series [3]: method as in PMID 26496207. To be noted: cited from earlier work.

In the case of `CC[n+]1ccccc1-c1c2nc(c(-c3cccc[n+]3CC)c3ccc([n-]3)c(-c3cccc[n+]3CC)c3nc(c(-c4cccc[n+]4CC)c4ccc1[n-]4)C=C3)C=C2.[Mn+3]` [MnTE-2-PyP5+], the “effect on chemotherapeutic response” value in series [1] and in series [2] was “enhanced the chemotherapeutic response” each time. In series [3], the “tissue accumulation, tumor compared to normal tissue” value is “accumulates preferentially in tumor tissue compared to normal tissue”.
